This is an account of results in patent US20110281944A1, “METHOD OF A RHEIN COMPOUND FOR INHIBITING PANCREATIC ISLET BETA-CELL DYSFUNCTION AND PREVENTING OR TREATING A PANCREATIC ISLET BETA-CELL DYSFUNCTION RELATED DISORDER” (Research Institute of Nephrology of Nanjing PLA, China, priority 2010, published 2011).

Assay [1] deals with pancreatic islet β-cells of db/db mice. The assay can be described thus: Immunohistochemical insulin staining and metrology analysis of pancreatic islets (β-cell amount). The format is in vivo. Conditions: administration for 8 weeks. On the procedure:
(§1) The agents and animals used in this example are the same as those used in example 1.
Experimental methods: Immunohistochemical assay. The mice are anaesthetized with phenobarbital sodium, perfused with physiological saline via heart, and fixed with 4% polyoxymethylene. The pancreas are removed, and then placed in 4% polyoxymethylene for 4-6 hours, embedded in paraffin, and sliced into a thickness of 5 um. The slices are dewaxed with xylene, rehydrated with ethanol at different gradient concentrations, and then treated with 0.3% hydrogen peroxide at room temperature for 20 min, so as to block the activity of endogenous peroxidase. The samples are treated with steams at 121° C. under high pressure for 10 min for repairing the antigen. 10% goat serum is added for blocking non-specific antigens. Rabbit-anti-mouse insulin antibody is added, and reacted at 4° C. overnight for 14 hours. […]
Metrology analysis of pancreatic islets: All of the slices are observed with optical microscope E800 (Nikon, Japan), and photographed with a digital camera (Sony, Japan) connected with the microscope. The digital photographs are obtained via Axiovision 4.3 software, and analyzed with Image-Pro Plus 5.0.1. Fifteen pancreatic islet photographs are randomly selected for each mouse, and at least 50 pancreatic islet photographs are analyzed for each group. […]

Assay [2] relates to type 2 diabetic db/db mice. Briefly: Intraperitoneal glucose tolerance test (IPGTT) on db/db mice after treatment with rhein for 8 weeks. The format is in vivo. Conditions: rhein 120 mg/Kg gavage 8 weeks. On the procedure:
Administration to the experimental animals: Thirty diabetic db/db mice of 4 week old are randomly assigned to treatment group and control group. Additional fifteen normal db/m mice of 4 week old are used as normal control group. The treatment group of diabetic db/db mice is treated with rhein (120 mg/Kg, dissolved in 0.1% cellulose sodium) by gavage for continuous 8 weeks. The diabetic control group of db/db mice and the normal control group of db/m mice are administrated 0.1% cellulose sodium by gavage.
Experimental methods: The intraperitoneal glucose tolerance test (IPGTT) is carried out on the mice after administration for 8 weeks. The mice are fasted overnight, and then are administrated by i.p. injection of glucose at 0.5 g/kg body weight. Blood is collected at 0, 30, 60 and 120 min for detecting whole blood glucose level and insulin level and calculating the area under the curve (AUC) of insulin. The area under the curve of insulin during 0˜30 min (AUCINS0.30) is calculated as: (insulin level at 30 min[…]insulin level at 0 min)×15, for evaluating the ability of early phase insulin secretion.

The subject of assay [3] is insulin-resistant obese rats. Briefly: Hyperglycemic clamp in obese rats after treatment with rhein for 4 weeks. The format is in vivo, Wistar rats. The source says: (§2) Experimental animals: Insulin-resistant obese rats are 4-week in-bred female Wistar rats induced by feeding with high-sugar high-fat feedstuff (20% sugar, 10% lard, 2.5% cholesterol, 1% cholic acid and 66.5% normal feedstuff) for 3 weeks.
(§3) Administration to the experimental animals: Thirty insulin-resistant obese rats are randomly assigned to treatment group and control group. Additional fifteen normal Wistar rats of 7 week old are used as normal control group. The treatment group of insulin-resistant obese rats is treated with rhein (100 mg/Kg, dissolved in 0.1% cellulose sodium) by gavage for continuous 4 weeks. The insulin-resistant obese control group and the normal control group are administrated with 0.1% cellulose sodium by gavage.

Assay [4] relates to pancreatic islets of type 2 diabetic db/db mice. Briefly: Pancreatic islet isolation and perfusion, first phase insulin secretion. The assay is classed as ex vivo. On the procedure: as §1
Experimental methods: After 8 weeks of administration, 5 mice are randomly selected from each group for pancreatic islet isolation and perfusion as follows. After anesthesia, the opening of common bile duct at duodenal papilla for each animal is clamped in vivo. 2 ml IV type collagenase is injected at the concentration of 1 mg/ml after performing common bile duct puncture under a stereoscopic microscope. After entering the pancreatic duct reversely to expand the pancreas, the pancreas is rapidly removed. The pancreas is placed in Hank's buffer containing 1 mg/ml collagenase and digested for 40 min to remove the collagens, and then washed under vibration for several times. Pancreatic islets are successfully isolated under microscopy. The pancreatic islets are incubated in a CO2 incubator for 2 hour with 50 islets per group, and then the islets are placed into a specially manufactured constant-temperature perfusion equipment. The […] are perfused with 2.8 mM glucose using a Harvard micro-pump at 0.5 ml/min for glucose starvation perfusion, and after 30 min, perfusion of high glucose (16.7 Mm) is performed at 1 ml/min. […] The first phase insulin secretion and dynamic secretion level of insulin are reflected from the curve of insulin levels measured.

For assay [5], the system named is pancreatic islet β-cells of obese rats. Briefly: Insulin expression in pancreatic islets of obese rats. The assay is classed as in vivo, Wistar rats. To be noted: rhein for 4 weeks, vs obese control group.
From the text: as §2, §3

Where [6] appears, read: rhein 100 mg/Kg by gavage for 4 weeks.

Entries after “also recorded” stand apart in the source; their conditions may differ.

In the case of `O=C(O)c1cc(O)c2c(c1)C(=O)c1cccc(O)c1C2=O` [rhein], the “insulin expression level in the pancreatic islets (insulin staining)” value in assay [1] (vs db/db control group) is “significantly enhances insulin expression level in the pancreatic islets”. Further, the “amount (mass) of pancreatic islet β-cells” value in assay [1] (vs untreated db/db) is “increases the mass of pancreatic islet β-cells; also recorded: significantly reduces the loss of pancreatic islet β-cells”. In assay [2], the AUC-glucose is on record as 1834 ± 151, the AUC-insulin is 812 ± 80 and the “AUCINSO-30 (AUC of insulin within 0-30 min)” value is reported as 63 ± 32. Further, in assay [2] (0 min), the Blood glucose turned out to be 7.6 ± 0.7 mmol/L and the plasma insulin turned out to be 5.3 ± 0.7 µg/L. In assay [2] (30 min), this compound came in with a Blood glucose of 19.5 ± 1.5 mmol/L and a plasma insulin of 9.5 ± 1.9 µg/L. Besides, in assay [2] (60 min), the Blood glucose was 18.3 ± 2.0 mmol/L and the plasma insulin came to 6.0 ± 0.7 µg/L. Further, in assay [2] (120 min), the Blood glucose was 10.4 ± 1.1 mmol/L and the plasma insulin worked out at 5.9 ± 0.6 µg/L. In assay [3] (setting [6]), the “FBG (fasting blood glucose)” value stood at 5.3 ± 0.5 mmol/L and the “SSBG (steady state blood glucose)” value turned out to be 14.9 ± 0.8 mmol/L. Further, the “GIR (glucose infusion rate)” value in assay [3] (rhein 100 mg/Kg by gavage for 4 weeks, Table 1) was determined as 32.2 ± 2.9 mg/kg/min. Moreover, the “glucose infusion rate (GIR) at steady-state” value in assay [3] (treatment with rhein for 4 weeks) came to 26.1 ± 2.9 mg/kg/min. Moreover, in assay [4] (islets of rhein-treated db/db mice, high glucose 16.7 mmol/L for 1 min), the “insulin level after high glucose stimulation relative to basal level” value was 7 times as high as basal level. Besides, the “first phase insulin secretion” value in assay [4] (type 2 diabetic db/db mice, pancreatic islet perfusion) is given as “significantly improves the first phase insulin secretion; also recorded: increases the first phase insulin secretion”. Also, the “insulin expression level in the islets” value in assay [5] is listed as “significantly improves the insulin expression level in the islets”.
